In brackets after ≈: the same amount, converted by molar mass.
Key:
Escherichia coli [1] = assay: Anti-infective activity against Escherichia coli ATCC 35210 assessed as reduction in bacterial growth by microdilution method; assay type: functional
Escherichia coli [2] = assay: Anti-infective activity against resistant Escherichia coli assessed as reduction in bacterial growth by microdilution method; assay type: functional
Pseudomonas aeruginosa [3] = assay: Anti-infective activity against Pseudomonas aeruginosa PAO1 assessed as reduction in bacterial growth by microdilution method; assay type: functional
Pseudomonas aeruginosa [4] = assay: Anti-infective activity against Pseudomonas aeruginosa ATCC 27853 assessed as reduction in bacterial growth by microdilution method; assay type: functional
Listeria monocytogenes = assay: Anti-infective activity against Listeria monocytogenes NCTC 7973 assessed as reduction in bacterial growth by microdilution method; assay type: functional
Staphylococcus aureus [5] = assay: Anti-infective activity against Staphylococcus aureus ATCC 6538 assessed as reduction in bacterial growth by microdilution method; assay type: functional
Salmonella typhimurium = assay: Anti-infective activity against Salmonella typhimurium ATCC 13311 assessed as reduction in bacterial growth by microdilution method; assay type: functional, Salmonella enterica subsp. enterica serovar Typhimurium; settings: Salmonella enterica
Staphylococcus aureus [6] = assay: Anti-infective activity against methicillin resistance Staphylococcus aureus assessed as reduction in bacterial growth by microdilution method; assay type: functional

Row | SMILES | MBC (Escherichia coli [1]) | MIC (Escherichia coli [1]) | MBC (Escherichia coli [2]) | MIC (Escherichia coli [2]) | MBC (Pseudomonas aeruginosa [3]) | MIC (Pseudomonas aeruginosa [3]) | MBC (Pseudomonas aeruginosa [4]) | MIC (Pseudomonas aeruginosa [4]) | MBC (Listeria monocytogenes) | MIC (Listeria monocytogenes) | MBC (Staphylococcus aureus [5]) | MIC (Staphylococcus aureus [5]) | MBC (Salmonella typhimurium) | MIC (Salmonella typhimurium) | MBC (Staphylococcus aureus [6]) | MIC (Staphylococcus aureus [6])
1 | O=C1CSC(c2ccc([N+](=O)[O-])cc2)N1c1nc2ccc(OC(F)(F)F)cc2s1 (racemic) | 250 µg/mL (≈ 566 µM) | 120 µg/mL (≈ 272 µM) | 500 µg/mL (≈ 1130 µM) | 250 µg/mL (≈ 566 µM) | 250 µg/mL (≈ 566 µM) | 120 µg/mL (≈ 272 µM) | 500 µg/mL (≈ 1130 µM) | 250 µg/mL (≈ 566 µM) | 500 µg/mL (≈ 1130 µM) | 250 µg/mL (≈ 566 µM) | 500 µg/mL (≈ 1130 µM) | 250 µg/mL (≈ 566 µM) | 250 µg/mL (≈ 566 µM) | 120 µg/mL (≈ 272 µM) | 1000 µg/mL (≈ 2270 µM) | 500 µg/mL (≈ 1130 µM)
2 | O=C1CSC(c2cccc(Cl)c2Cl)N1c1nc2ccc(OC(F)(F)F)cc2s1 (racemic) | 250 µg/mL (≈ 537 µM) | 150 µg/mL (≈ 322 µM) | 250 µg/mL (≈ 537 µM) | 120 µg/mL (≈ 258 µM) | 120 µg/mL (≈ 258 µM) | 120 µg/mL (≈ 258 µM) | 500 µg/mL (≈ 1070 µM) | 250 µg/mL (≈ 537 µM) | 250 µg/mL (≈ 537 µM) | 100 µg/mL (≈ 215 µM) | 250 µg/mL (≈ 537 µM) | 100 µg/mL (≈ 215 µM) | 250 µg/mL (≈ 537 µM) | 150 µg/mL (≈ 322 µM) | 1000 µg/mL (≈ 2150 µM) | 500 µg/mL (≈ 1070 µM)
3 | O=C1CSC(c2c(F)cccc2F)N1c1nc2ccc(OC(F)(F)F)cc2s1 (racemic) | 250 µg/mL (≈ 578 µM) | 120 µg/mL (≈ 278 µM) | 500 µg/mL (≈ 1160 µM) | 250 µg/mL (≈ 578 µM) | 500 µg/mL (≈ 1160 µM) | 300 µg/mL (≈ 694 µM) | 500 µg/mL (≈ 1160 µM) | 250 µg/mL (≈ 578 µM) | > 1000 µg/mL | > 1000 µg/mL | > 1000 µg/mL | > 1000 µg/mL | 250 µg/mL (≈ 578 µM) | 120 µg/mL (≈ 278 µM) | 1000 µg/mL (≈ 2310 µM) | 250 µg/mL (≈ 578 µM)
4 | O=C1CSC(c2ccc(O)cc2)N1c1nc2ccc(OC(F)(F)F)cc2s1 (racemic) | 250 µg/mL (≈ 606 µM) | 150 µg/mL (≈ 364 µM) | 500 µg/mL (≈ 1210 µM) | 250 µg/mL (≈ 606 µM) | 500 µg/mL (≈ 1210 µM) | 300 µg/mL (≈ 727 µM) | 250 µg/mL (≈ 606 µM) | 120 µg/mL (≈ 291 µM) | 750 µg/mL (≈ 1820 µM) | 500 µg/mL (≈ 1210 µM) | 750 µg/mL (≈ 1820 µM) | 500 µg/mL (≈ 1210 µM) | 250 µg/mL (≈ 606 µM) | 150 µg/mL (≈ 364 µM) | 500 µg/mL (≈ 1210 µM) | 250 µg/mL (≈ 606 µM)
5 | O=C1CSC(c2ccc(Cl)cc2Cl)N1c1nc2ccc(OC(F)(F)F)cc2s1 (racemic) | 250 µg/mL (≈ 537 µM) | 120 µg/mL (≈ 258 µM) | 500 µg/mL (≈ 1070 µM) | 250 µg/mL (≈ 537 µM) | 1000 µg/mL (≈ 2150 µM) | 250 µg/mL (≈ 537 µM) | 500 µg/mL (≈ 1070 µM) | 250 µg/mL (≈ 537 µM) | 500 µg/mL (≈ 1070 µM) | 150 µg/mL (≈ 322 µM) | 500 µg/mL (≈ 1070 µM) | 150 µg/mL (≈ 322 µM) | 250 µg/mL (≈ 537 µM) | 120 µg/mL (≈ 258 µM) | 1000 µg/mL (≈ 2150 µM) | 500 µg/mL (≈ 1070 µM)
6 | O=C1CSC(c2c(Cl)cccc2Cl)N1c1nc2ccc(OC(F)(F)F)cc2s1 (racemic) | 250 µg/mL (≈ 537 µM) | 120 µg/mL (≈ 258 µM) | 500 µg/mL (≈ 1070 µM) | 250 µg/mL (≈ 537 µM) | 250 µg/mL (≈ 537 µM) | 120 µg/mL (≈ 258 µM) | 500 µg/mL (≈ 1070 µM) | 250 µg/mL (≈ 537 µM) | 500 µg/mL (≈ 1070 µM) | 250 µg/mL (≈ 537 µM) | 500 µg/mL (≈ 1070 µM) | 250 µg/mL (≈ 537 µM) | 250 µg/mL (≈ 537 µM) | 120 µg/mL (≈ 258 µM) | 500 µg/mL (≈ 1070 µM) | 250 µg/mL (≈ 537 µM)
7 | O=C1CSC(c2ccc(F)cc2)N1c1nc2ccc(OC(F)(F)F)cc2s1 (racemic) | 250 µg/mL (≈ 603 µM) | 150 µg/mL (≈ 362 µM) | 500 µg/mL (≈ 1210 µM) | 250 µg/mL (≈ 603 µM) | 500 µg/mL (≈ 1210 µM) | 250 µg/mL (≈ 603 µM) | 500 µg/mL (≈ 1210 µM) | 250 µg/mL (≈ 603 µM) | 500 µg/mL (≈ 1210 µM) | 250 µg/mL (≈ 603 µM) | 500 µg/mL (≈ 1210 µM) | 250 µg/mL (≈ 603 µM) | 250 µg/mL (≈ 603 µM) | 150 µg/mL (≈ 362 µM) | 500 µg/mL (≈ 1210 µM) | 250 µg/mL (≈ 603 µM)
8 | O=C1CSC(c2ccc(Cl)cc2)N1c1nc2ccc(OC(F)(F)F)cc2s1 (racemic) | 250 µg/mL (≈ 580 µM) | 120 µg/mL (≈ 279 µM) | 250 µg/mL (≈ 580 µM) | 120 µg/mL (≈ 279 µM) | 250 µg/mL (≈ 580 µM) | 200 µg/mL (≈ 464 µM) | 500 µg/mL (≈ 1160 µM) | 250 µg/mL (≈ 580 µM) | 500 µg/mL (≈ 1160 µM) | 250 µg/mL (≈ 580 µM) | 500 µg/mL (≈ 1160 µM) | 250 µg/mL (≈ 580 µM) | 250 µg/mL (≈ 580 µM) | 120 µg/mL (≈ 279 µM) | 750 µg/mL (≈ 1740 µM) | 250 µg/mL (≈ 580 µM)
9 | COc1ccc(C2SCC(=O)N2c2nc3ccc(OC(F)(F)F)cc3s2)cc1 (racemic) | 500 µg/mL (≈ 1170 µM) | 250 µg/mL (≈ 586 µM) | 500 µg/mL (≈ 1170 µM) | 250 µg/mL (≈ 586 µM) | 250 µg/mL (≈ 586 µM) | 120 µg/mL (≈ 281 µM) | 500 µg/mL (≈ 1170 µM) | 250 µg/mL (≈ 586 µM) | 500 µg/mL (≈ 1170 µM) | 250 µg/mL (≈ 586 µM) | 500 µg/mL (≈ 1170 µM) | 250 µg/mL (≈ 586 µM) | 500 µg/mL (≈ 1170 µM) | 250 µg/mL (≈ 586 µM) | 1000 µg/mL (≈ 2340 µM) | 500 µg/mL (≈ 1170 µM)
10 | O=C1CSC(c2c(F)cccc2Cl)N1c1nc2ccc(OC(F)(F)F)cc2s1 (racemic) | 500 µg/mL (≈ 1110 µM) | 250 µg/mL (≈ 557 µM) | 500 µg/mL (≈ 1110 µM) | 250 µg/mL (≈ 557 µM) | 250 µg/mL (≈ 557 µM) | 120 µg/mL (≈ 267 µM) | 1000 µg/mL (≈ 2230 µM) | 500 µg/mL (≈ 1110 µM) | 500 µg/mL (≈ 1110 µM) | 250 µg/mL (≈ 557 µM) | 500 µg/mL (≈ 1110 µM) | 250 µg/mL (≈ 557 µM) | 500 µg/mL (≈ 1110 µM) | 250 µg/mL (≈ 557 µM) | 1000 µg/mL (≈ 2230 µM) | 500 µg/mL (≈ 1110 µM)
11 | CC1(C)S[C@@H]2[C@H](NC(=O)[C@H](N)c3ccccc3)C(=O)N2[C@H]1C(=O)O [AMPICILLIN] | 200 µg/mL (≈ 572 µM) | 150 µg/mL (≈ 429 µM) | – | 200 µg/mL (≈ 572 µM) | – | 200 µg/mL (≈ 572 µM) | 150 µg/mL (≈ 429 µM) | 100 µg/mL (≈ 286 µM) | 300 µg/mL (≈ 859 µM) | 150 µg/mL (≈ 429 µM) | 300 µg/mL (≈ 859 µM) | 150 µg/mL (≈ 429 µM) | 200 µg/mL (≈ 572 µM) | 150 µg/mL (≈ 429 µM) | – | –
12 | CN[C@@H]1[C@H](O[C@H]2[C@H](O[C@H]3[C@H](O)[C@@H](O)[C@H](N=C(N)N)[C@@H](O)[C@@H]3N=C(N)N)O[C@@H](C)[C@]2(O)C=O)O[C@@H](CO)[C@H](O)[C@H]1O [STREPTOMYCIN] | 200 µg/mL (≈ 344 µM) | 100 µg/mL (≈ 172 µM) | 200 µg/mL (≈ 344 µM) | 100 µg/mL (≈ 172 µM) | 100 µg/mL (≈ 172 µM) | 50 µg/mL (≈ 86 µM) | 200 µg/mL (≈ 344 µM) | 100 µg/mL (≈ 172 µM) | 300 µg/mL (≈ 516 µM) | 150 µg/mL (≈ 258 µM) | 300 µg/mL (≈ 516 µM) | 150 µg/mL (≈ 258 µM) | 200 µg/mL (≈ 344 µM) | 100 µg/mL (≈ 172 µM) | – | 100 µg/mL (≈ 172 µM)

From ChEMBL document CHEMBL4680298, “2-Aryl-3-(6-trifluoromethoxy)benzo[d]thiazole-based thiazolidinone hybrids as potential anti-infective agents: Synthesis, biological evaluation and molecular docking studies” (2021)
